Where no end group is shown, it is not given here.
system: AI4 CTL; experiment: 51Cr-release cytotoxicity assay, AI4 CTL against peptide-pulsed RMA-S target cells; type: cell-based, mouse; conditions: RMA-S target cells, E:T ratio of 40, lower peptide concentrations (FIG. 6B); read-out: half-maximal activity, AI4 cytotoxic response
Method: Cytotoxicity assays for screening of HPLC fractions and peptide libraries. AI4 CTL were generated by culturing splenocytes from NOD.AI4αβTg mice with IFN-γ-treated NIT-1 cells and 12.5 U/ml IL-2 as described (DiLorenzo et al., 2002). NY8.3 CTL were generated by culturing splenocytes from 8.3-NOD mice with mitomycin C-treated NOD splenocytes pulsed with 10 nM NRP-A7 peptide as described (DiLorenzo et al., 2002). CTL were used in 16 h ^51Cr-release cytotoxicity assays to test for recognition of peptide-pulsed target cells at an E:T ratio of 40:1 as described (DiLorenzo et al., 2002). TAP-deficient cell lines RMA-S, RMA-S/K^d, T2, and T2-K^d were used as targets. Synthetic peptides or peptide library mixes were used at concentrations indicated in the figures, and 1.6×10^9 NIT-1 cell equivalents of peptide were used for HPLC fraction screening assays.
Cytotoxicity Assay. AI4 CTL were generated by culturing splenocytes from NOD.AI4αβ Tg mice with IFN-γ-treated NIT-1β cells (Hamaguchi et al., 1991) and IL-2 as described (DiLorenzo et al., 2002). CTL were used in 16 h ^51Cr-release cytotoxicity assays to test for recognition of peptide-pulsed target cells at an effector to target ratio of 40:1 as described (DiLorenzo et al., 2002). TAP-deficient RMA-S cells (Kerre et al., 1986) were used as targets.

Row | Sequence | EC50
1 | YAIENYLEL [MimA2, YAIENYLEL] | 0.01 nM

same assay, conditions: RMA-S targets, peptide 0.1 nM to 1 μM (FIG. 11A)

Row | Sequence | AI4 CTL response to natural peptides with AI4-preferred motif
2 | DMHENYMEM [DM9, natural peptide of X-linked lymphocyte regulated complex] | nonreacting
3 | EVVESYMYL [EL9, natural peptide, similar to 1,2-α-mannosidase IC] | nonreacting
4 | FQDENYLYL (listed as Mus musculus) [FNL9, natural peptide of DMK and MRCKβ] | mirroring that obtained with the Mim peptide
5 | FTDESYLEL [FSL9, natural peptide of polymyositis/scleroderma autoantigen 2] | nonreacting
6 | HEAESYML [HL9, natural peptide of calcitonin receptor precursor] | nonreacting
7 | QYLENYLWM (listed as Mus musculus) [QM9, natural peptide of aquarius] | more weakly
8 | RLFENYIEL (listed as Mus musculus) [RIL9, natural peptide of exocyst complex component Sec5] | more weakly
9 | RTSENYLEL [RLL9, natural peptide of MKIAA1569 protein] | nonreacting
10 | TNKENYTEL [TL9, natural peptide of stromal cell derived factor receptor 1] | nonreacting
11 | VMLENYTHL (listed as Mus musculus) [VML9, natural peptide, similar to KRAB zinc finger protein] | more weakly
12 | VTLENYTHL [VTL9, natural peptide of hypothetical protein] | nonreacting

same assay, conditions: mimotope and alanine-substituted peptides, varying concentrations, E:T ratio of 40

Row | Sequence | AI4 cytotoxic response towards peptide-pulsed RMA-S target cells
13 | YAIENYLEL [MimA2, YAIENYLEL] | strongest AI4 CTL response of all of the peptides
14 | YFIANYLEL [A4] | significantly lower responses
15 | YFIENALEL [A6] | significantly lower responses
16 | YFIENYAEL [A7] | decreased
17 | YFIENYLAL [A8] | decreased
18 | YFIENYLEL [Mim, YFIENYLEL] | best response

target: T1, H-2K^d (Mus musculus, UniProt P01902); experiment: not given; conditions: cited from earlier work
T1 sequence (P01902 22-368): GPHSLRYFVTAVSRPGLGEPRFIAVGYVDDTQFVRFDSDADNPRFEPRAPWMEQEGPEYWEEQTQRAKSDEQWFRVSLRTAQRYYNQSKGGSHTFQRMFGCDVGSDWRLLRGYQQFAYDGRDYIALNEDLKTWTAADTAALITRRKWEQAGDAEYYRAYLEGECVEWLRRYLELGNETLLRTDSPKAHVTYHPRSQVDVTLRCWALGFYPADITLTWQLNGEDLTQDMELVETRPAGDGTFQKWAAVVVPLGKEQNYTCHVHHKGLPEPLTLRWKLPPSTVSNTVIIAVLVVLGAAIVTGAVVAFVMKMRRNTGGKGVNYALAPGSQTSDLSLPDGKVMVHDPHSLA
T1 sequence (P01887 21-119 partner): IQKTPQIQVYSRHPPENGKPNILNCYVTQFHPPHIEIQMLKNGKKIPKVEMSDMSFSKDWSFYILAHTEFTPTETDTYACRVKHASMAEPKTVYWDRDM

Row | Sequence | binding to H-2K^d relative to insulin B15-23
19 | LYLVCGERI (listed as Mouse sp.) [INS-I9, G9I variant of murine insulin B15-23] | more stable binding
20 | LYLVCGERL (listed as Mus musculus) [INS-L9, G9L variant of murine insulin B15-23] | more stable binding

system: T cells cultured from NOD islets; experiment: IFN-γ ELISPOT of T cells cultured from NOD islets with peptide-pulsed APC; type: cell-based, mouse; conditions: 1 μM peptide, T cells from pooled islets of 11-week-old NOD mice, 40 h
Method: ELISPOT assay. ELISPOT plates (MAHA S45 10; Millipore, Billerica, Mass.) were precoated with anti-murine IFN-γ Ab (R4-6A2; BD Biosciences Pharmingen, San Diego, Calif.) and blocked with 1% BSA (Fraction V, Sigma-Aldrich, St. Louis, Mo.) in PBS. APC (Mitomycin C-treated NOD splenocytes) were added at 2×10^4 cells/well and pulsed for 1 h with 1 μM of each peptide (MimA2, NRP-V7, INS-19, INS BC, GAD65206, GAD65546). Cultured islet T cells were added at 2×10^4 cells/well and plates were incubated at 37° C. for 40 h. IFN-γ secretion was detected with a second, biotinylated anti-murine IFN-γ Ab (XMG1.2; BD Biosciences Pharmingen, San Diego, Calif.). Spots were developed using streptavidin-alkaline phosphatase (Zymed Laboratories, Inc., South San Francisco, Calif.) and 5-bromo-4-chloro-3-indolyl-phosphate/nitroblue tetrazolium chloride substrate (Sigma-Aldrich, St. Louis, Mo.).
IFN-γ ELISPOT. ELISPOT plates (MAHA S45 10; Millipore) were coated with anti-murine IFN-γ Ab (R4-6A2; BD Biosciences Pharmingen) and blocked with 1% BSA (Sigma-Aldrich) in PBS. APC (Mitomycin C-treated NOD splenocytes) were added at 2×10^4 cells/well and pulsed with 1 μM peptide. Cultured islet T cells were added at 2×10^4 cells/well and plates were incubated at 37° C. for 40 h. Secreted IFN-γ was detected with a second, biotinylated anti-murine IFN-γ Ab (XMG1.2; BD Biosciences Pharmingen). Spots were developed using streptavidin-alkaline phosphatase (Zymed Laboratories) and 5-bromo-4-chloro-3-indolyl-phosphate/nitroblue tetrazolium chloride substrate (Sigma-Aldrich). For all incubation steps, plate bottoms were covered with aluminum foil to distribute heat uniformly across the plate as described (Kalyuzhny and Stark, 2001).

Row | Sequence | IFN-γ spots in response to peptide
21 | FQDENYLYL (listed as Mus musculus) [FNL9, natural peptide of DMK and MRCKβ] | recognized by a detectable population of T cells
22 | FYTPMSRREV (listed as Mus musculus) [INS BC, murine insulin 2 B25-C34] | No spots were detected
23 | KYNKANVFL (peptide NRP-V7) [mimotope peptide recognized by 8.3-like T cells] | detectable
24 | LYLVCGERL (listed as Mus musculus) [INS-L9, G9L variant of murine insulin B15-23] | detectable
25 | SYQPLGDKV (listed as Mus musculus) [GAD65546, murine GAD65 546-554 peptide] | unable to detect responses
26 | TYEIAPVFV (listed as Mus musculus) [GAD65206, murine glutamic acid decarboxylase 65 206-214] | unable to detect responses

— patent US8318670B2, “Antigens targeted by pathogenic AI4 T cells in type 1 diabetes and uses thereof” (Albert Einstein College of Medicine of Yeshiva University, priority 2004, dated 2012)
